Experimental data reported in US20100069339A1, “NOVEL METHOD OF TREATMENT OF MALE SUB-FERTILITY” (BIOXELL S.P.A., priority 2006, published 2010).
Entries after “also recorded” stand apart in the source; their conditions may differ.

How the values were obtained:
[1] = tested on: BPH cells; conditions: cited from earlier work
[2] = tested on: IL-8; assay: Sandwich ELISA re-evaluation of seminal plasma IL-8 in trial patients; type: in vivo, human; conditions: 29 Compound A-treated vs 27 Placebo-treated patients, p=0.002
From the text: (§1) A sandwich ELISA system was used to re-evaluate seminal plasma IL-8 level in 27 Placebo-treated and 29 Compound A—treated patients from the trial described in Biological Example 5 and to extend the analysis to other inflammatory mediators. Note that TIMP-1 is an inhibitor of an inflammatory marker.

[3] = tested on: CCL2/MCP-1; assay: Sandwich ELISA of seminal plasma CCL2/MCP-1 in trial patients; type: in vivo, human; conditions: CP/CPPS patients, treatment vs placebo
From the text: as §1

[4] = tested on: human BPH cells; assay: Inhibition of IL-8 production in human BPH cells by vitamin D compounds; type: cell-based; conditions: BPH cells stimulated with IL-17 10 ng/ml and interferon gamma 10 ng/ml; compounds at 1, 10 and 100 nM, 72 hours; ELISA
Method: Approximately 2000 human BPH cells were placed in wells of a standard 96 well plate and stimulated for 72 hours with IL-17 at 10 ng/ml and interferon gamma at 10 ng/ml and incubated with vitamin D compounds individually at concentrations of 1, 10 and 100 nM for 72 hours IL-8 production by the cells was measured by conventional two-site ELISA using human IL-8 ELISA set (BD Biosciences, San Diego, Calif.) according to the manufacturer's instructions.

[5] = tested on: IL-8; assay: Seminal IL-8 in CP/CPPS patients, randomized double-blind placebo controlled study; type: in vivo, human
From the text: We conducted a randomized, double-blind placebo controlled study in 121 patients with CP/CPPS. The primary objective of the study was to evaluate the effect of Compound A(150 mcg/die) after three months of treatment on the NIH score, a score encompassing pain, quality of life and lower urinary tract symptoms. As a secondary endpoint, we measured IL8 in the semen at baseline and at the end of the treatment.

[6] = tested on: tissue inhibitor of metalloproteinase TIM-1; assay: Sandwich ELISA of seminal plasma TIM-1 in trial patients; type: in vivo, human; conditions: CP/CPPS patients, treatment vs placebo
From the text: as §1

[7] = tested on: matrix metalloproteinase MMP2; assay: Sandwich ELISA of seminal plasma MMP2 in trial patients; type: in vivo, human; conditions: CP/CPPS patients, treatment vs placebo
From the text: as §1

[8] = tested on: soluble pattern recognition receptor PTX3; assay: Sandwich ELISA of seminal plasma PTX3 in trial patients; type: in vivo, human; conditions: CP/CPPS patients, treatment vs placebo
From the text: as §1

SMILES: C=C1CC[C@H](O)C/C1=C/C=C1\CCC[C@]2(C)[C@@H]([C@H](C)CCCC(C)C)CC[C@@H]12 [vitamin D3, 9,10-secocholesta-5,7,10(19)-trien-3B-ol]
- BPH cell proliferation [1]: inhibited
- mitogenic activity of growth factors for BPH cells ([1]; keratinocyte growth factor (KGF) and insulin-like growth factor (IGF1)): counteracted

SMILES: C=C1/C(=C\C=C2/CCC[C@]3(C)C([C@@H](C)C/C=C/C(O)(CC)CC)=CC[C@@H]23)C[C@@H](O)C[C@@H]1F [Compound A, 1-alpha-fluoro-25-hydroxy-16,23E-diene-26,27-bishomo-20-epi-cholecalciferol]
- seminal plasma IL-8 levels compared to placebo [2]: Significantly reduced
- CCL2/MCP-1 level in seminal plasma [3]: decreased
- IL-8 production (IL-8 concentration) [4]: can lower IL-8 levels in vitro
- IL-8 levels in the semen vs. placebo ([5]; 150 mcg/die, after 12 weeks): significantly reduce; also recorded: can lower seminal IL-8 levels in human patients
- Seminal IL-8, % Change vs Baseline Week 12, 25th perc. ([5]; 150 mcg/die, week 12): −42.37%
- Seminal IL-8, % Change vs Baseline Week 12, 75th perc. ([5]; 150 mcg/die, week 12): 1.05%
- Seminal IL-8, % Change vs Baseline Week 12, Max ([5]; 150 mcg/die, week 12): 89.48%
- Seminal IL-8, % Change vs Baseline Week 12, Mean ([5]; 150 mcg/die, week 12): −19.33%
- Seminal IL-8, % Change vs Baseline Week 12, Median ([5]; 150 mcg/die, week 12): −19.17%
- Seminal IL-8, % Change vs Baseline Week 12, Min ([5]; 150 mcg/die, week 12): −61.82%
- Seminal IL-8, Abs Change vs Baseline Week 12, 25th perc. ([5]; 150 mcg/die, week 12): −723.00
- Seminal IL-8, Abs Change vs Baseline Week 12, 75th perc. ([5]; 150 mcg/die, week 12): 12.50
- Seminal IL-8, Abs Change vs Baseline Week 12, Max ([5]; 150 mcg/die, week 12): 604.00
- Seminal IL-8, Abs Change vs Baseline Week 12, Mean ([5]; 150 mcg/die, week 12): −368.34
- Seminal IL-8, Abs Change vs Baseline Week 12, Median ([5]; 150 mcg/die, week 12): −358.00
- Seminal IL-8, Abs Change vs Baseline Week 12, Min ([5]; 150 mcg/die, week 12): −1264.00
- Seminal IL-8, Week 12, 25th perc. ([5]; 150 mcg/die, week 12): 809.50
- Seminal IL-8, Week 12, 75th perc. ([5]; 150 mcg/die, week 12): 1394.00
- Seminal IL-8, Week 12, Max ([5]; 150 mcg/die, week 12): 2599.00
- Seminal IL-8, Week 12, Mean ([5]; 150 mcg/die, week 12): 1172.57
- Seminal IL-8, Week 12, Median ([5]; 150 mcg/die, week 12): 985.50
- Seminal IL-8, Week 12, Min ([5]; 150 mcg/die, week 12): 386.00
- Seminal IL-8, Baseline, 25th perc. ([5]; before treatment): 947.50
- Seminal IL-8, Baseline, 75th perc. ([5]; before treatment): 1903.50
- Seminal IL-8, Baseline, Max ([5]; before treatment): 3015.00
- Seminal IL-8, Baseline, Mean ([5]; before treatment): 1486.43
- Seminal IL-8, Baseline, Median ([5]; before treatment): 1376.50
- Seminal IL-8, Baseline, Min ([5]; before treatment): 468.00
- TIM-1 level in seminal plasma [6]: enhanced
- MMP2 level in seminal plasma [7]: decreased
- PTX3 level in seminal plasma [8]: decreased
